Assay results from patent publication US9840513B2 (AbbVie S.à.r.l., priority 2015, dated 2017).

Target: T1, F508delCFTR cell surface expression in CFBE41o-F508delCFTR-HRP cells (Homo sapiens, UniProt P13569, DEL508-508)
T1 construct: fused on or other part: Horseradish peroxidase (HRP) reporter inserted in the fourth exofacial (extracellular) loop of CFTR; expression is doxycycline-inducible
Experiment: Cell Surface Expression-Horse Radish Peroxidase (CSE-HRP) Assay
Type: cell-based
Conditions: for EC50: CFBE41o-F508delCFTR-HRP cells, 18-24 hours at 33° C., 8-point curve, highest concentration 20 μM; for Maximum % activity (%): maximum at any tested concentration, normalized to on-plate positive control (3 μM)
Text: Cell Surface Expression-Horse Radish Peroxidase (CSE-HRP) Assay:
A cellular assay for measuring the F508delCFTR cell surface expression after correction with test compounds was developed in human lung derived epithelial cell line (CFBE41o-) (Veit G et al, (2012) Mol Biol Cell. 23(21): 4188-4202). This was achieved by expressing the F508delCFTR mutation along with a horseradish peroxidase (HRP) in the fourth exofacial loop and then measuring the HRP activity using luminescence readout from these cells, CFBE41o-F508delCFTR-HRP, that were incubated overnight with the test corrector compounds. Briefly, for this primary assay, the CFBE41o-F508delCFTR-HRP cells were plated in 384-well plates (Greiner Bio-one; Cat 781080) at 4,000 cells/well along with 0.5 μg/mL doxycycline to induce the F508delCFTR-HRP expression and further incubated at 37° C., 5% CO2 for 72 hours. The test compounds were then added at the required concentrations and further incubated for 18-24 hours at 33° C. The highest concentration tested was 20 μM with an 8-point concentration response curve using a 3-fold dilution. Three replicate plates were run to determine one EC50. All plates contained negative controls (dimethyl sulfoxide, DMSO) and positive controls (3 μM of 3-[(2R,4R)-4-({[1-(2,2-difluoro-1,3-benzodioxol-5-yl)cyclopropyl]carbonyl}amino)-7-methoxy-3,4-dihydro-2H-chromen-2-yl]benzoic acid) as well as on-plate concentration response of the positive control. Post incubation, the plates were washed 5× times with Dulbecco's phosphate buffered saline (DPBS), followed by the addition of the HRP substrate, luminol (50 μL), and measuring the HRP activity using luminescence readout on EnVision® Multilabel Plate Reader (Perkin Elmer; product number 2104-0010). The raw counts from the experiment are analyzed using Accelrys® Assay Explorer v3.3.
Z′ greater than 0.5 was used as passing quality control criteria for the plates.
The Z′ is defined as: 1−[3*SDPositive Control+3*SDNegative Control/Absolute(MeanPositive Control−MeanNegative Control)] wherein “SD” is standard deviation.
The % activity measured at each of the 8 test concentrations of the test compound was normalized to the on-plate positive control using the following formula: % activity=[(test compound response DMSO response)/(positive control response DMSO response)]*100
The maximum % activity achieved for the test compound at any tested concentration is presented in Table 1 along with the EC50 calculated using the following general sigmoidal curve with variable Hill slope equation (described as Model 42 in the Accelrys® Assay Explorer v3.3 software): y=(a−d)/(1+(x/c)^b)+d
General sigmoidal curve with concentration, response, top, bottom, EC50 and Hill slope.
This model describes a sigmoidal curve with an adjustable baseline, a. The equation can be used to fit curves where response is either increasing or decreasing with respect to the independent variable, “x”.
“x” is a concentration of drug under test.
“a” is the maximum response, and “d” is the minimum response
“c” is the inflection point (EC50) for the curve. That is, “y” is halfway between the lower and upper asymptotes when x=c.
“b” is the slope-factor or Hill coefficient. The sign of b is positive when the response increases with increasing dose and is negative when the response decreases with increasing dose (inhibition).

T1 sequence (P13569 with tags, fused parts or gaps DEL508-508 limits assumed): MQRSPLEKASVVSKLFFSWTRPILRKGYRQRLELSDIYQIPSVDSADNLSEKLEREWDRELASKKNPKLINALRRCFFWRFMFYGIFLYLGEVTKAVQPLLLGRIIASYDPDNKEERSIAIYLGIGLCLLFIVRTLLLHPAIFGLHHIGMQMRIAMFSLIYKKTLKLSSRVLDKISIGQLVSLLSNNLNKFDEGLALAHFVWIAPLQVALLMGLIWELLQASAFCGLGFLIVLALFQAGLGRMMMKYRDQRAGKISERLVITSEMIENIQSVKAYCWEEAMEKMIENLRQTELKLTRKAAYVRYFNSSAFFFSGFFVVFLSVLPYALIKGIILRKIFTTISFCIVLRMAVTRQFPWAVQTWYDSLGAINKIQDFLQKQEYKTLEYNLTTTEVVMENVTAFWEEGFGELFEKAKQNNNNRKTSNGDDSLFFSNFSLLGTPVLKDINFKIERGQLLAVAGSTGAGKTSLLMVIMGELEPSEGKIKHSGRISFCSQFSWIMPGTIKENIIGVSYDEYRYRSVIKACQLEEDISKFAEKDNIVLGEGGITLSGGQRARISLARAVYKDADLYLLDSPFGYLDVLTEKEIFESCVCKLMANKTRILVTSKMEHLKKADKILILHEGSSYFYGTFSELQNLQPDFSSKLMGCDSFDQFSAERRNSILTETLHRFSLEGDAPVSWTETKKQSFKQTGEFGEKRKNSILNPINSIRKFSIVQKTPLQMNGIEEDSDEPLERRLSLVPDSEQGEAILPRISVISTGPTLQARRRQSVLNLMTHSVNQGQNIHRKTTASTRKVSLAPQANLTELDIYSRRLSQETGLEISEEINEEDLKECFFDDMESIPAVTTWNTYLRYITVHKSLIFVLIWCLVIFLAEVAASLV
T1 sequence (P13569 919-1480 limits assumed, stated change not applied): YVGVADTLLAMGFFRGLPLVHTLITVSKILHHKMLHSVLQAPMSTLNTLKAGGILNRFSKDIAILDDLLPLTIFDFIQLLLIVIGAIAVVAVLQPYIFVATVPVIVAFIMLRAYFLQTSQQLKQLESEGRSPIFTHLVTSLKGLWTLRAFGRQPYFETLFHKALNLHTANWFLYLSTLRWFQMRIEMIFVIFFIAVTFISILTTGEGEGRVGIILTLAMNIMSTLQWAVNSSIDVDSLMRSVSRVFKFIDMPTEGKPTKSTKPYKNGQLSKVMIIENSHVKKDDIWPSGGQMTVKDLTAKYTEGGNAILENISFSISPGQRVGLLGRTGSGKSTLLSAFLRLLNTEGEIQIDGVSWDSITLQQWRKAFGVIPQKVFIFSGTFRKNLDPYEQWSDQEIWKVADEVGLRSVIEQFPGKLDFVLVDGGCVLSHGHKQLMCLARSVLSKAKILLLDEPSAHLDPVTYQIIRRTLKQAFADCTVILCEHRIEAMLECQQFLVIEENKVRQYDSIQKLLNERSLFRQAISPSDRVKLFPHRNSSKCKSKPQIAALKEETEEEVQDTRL

Row | SMILES | EC50 [nM] | Maximum % activity (%)
1 | COc1ccc2c(c1)O[C@@H](c1cccc(C(=O)O)c1)C[C@H]2NC(=O)[C@]1(C)COc2cc3c(cc21)OC(F)(F)O3 [Example 13, 3-[(2R,4R)-4-{[(7S)-2,2-difluoro-7-methyl-6,7-dihydro-2H-furo[2,3-f][1,3]benzodioxole-7-carbonyl]amino}-7-methoxy-3,4-dihydro-2H-1-benzopyran-2-yl]benzoic acid] | 8810 | 72
2 | COc1ccc2c(c1)O[C@@H](c1cccc(C(=O)O)c1)C[C@H]2NC(=O)[C@@]1(C)COc2cc3c(cc21)OC(F)(F)O3 [Example 14, 3-[(2R,4R)-4-{[(7R)-2,2-difluoro-7-methyl-6,7-dihydro-2H-furo[2,3-f][1,3]benzodioxole-7-carbonyl]amino}-7-methoxy-3,4-dihydro-2H-1-benzopyran-2-yl]benzoic acid] | 380 | 187
3 | COC(=O)c1ccc([C@H]2C[C@@H](NC(=O)C3(C)COc4cc5c(cc43)OC(F)(F)O5)c3ccc(OC)cc3O2)cc1 (stereo partly drawn) [Example 15, methyl 4-{(2R,4R)-4-[(2,2-difluoro-7-methyl-6,7-dihydro-2H-furo[2,3-f][1,3]benzodioxole-7-carbonyl)amino]-7-methoxy-3,4-dihydro-2H-1-benzopyran-2-yl}benzoate] | 150 | 143
4 | COc1ccc2c(c1)O[C@@H](c1ccc(C(=O)O)cc1)C[C@H]2NC(=O)C1(C)COc2cc3c(cc21)OC(F)(F)O3 (stereo partly drawn) [Example 16, 4-{(2R,4R)-4-[(2,2-difluoro-7-methyl-6,7-dihydro-2H-furo[2,3-f][1,3]benzodioxole-7-carbonyl)amino]-7-methoxy-3,4-dihydro-2H-1-benzopyran-2-yl}benzoic acid] | 60 | 150
5 | COC(=O)c1ccc([C@H]2C[C@@H](NC(=O)[C@]3(C)COc4cc5c(cc43)OC(F)(F)O5)c3ccc(OC)cc3O2)cc1 [Example 17, methyl 4-[(2R,4R)-4-{[(7S)-2,2-difluoro-7-methyl-6,7-dihydro-2H-furo[2,3-f][1,3]benzodioxole-7-carbonyl]amino}-7-methoxy-3,4-dihydro-2H-1-benzopyran-2-yl]benzoate] | 8770 | 31
6 | COc1ccc2c(c1)O[C@@H](c1ccc(C(=O)O)cc1)C[C@H]2NC(=O)[C@]1(C)COc2cc3c(cc21)OC(F)(F)O3 [Example 18, 4-[(2R,4R)-4-{[(7S)-2,2-difluoro-7-methyl-6,7-dihydro-2H-furo[2,3-f][1,3]benzodioxole-7-carbonyl]amino}-7-methoxy-3,4-dihydro-2H-1-benzopyran-2-yl]benzoic acid] | 5750 | 91
7 | COC(=O)c1ccc([C@H]2C[C@@H](NC(=O)[C@@]3(C)COc4cc5c(cc43)OC(F)(F)O5)c3ccc(OC)cc3O2)cc1 [Example 19, methyl 4-[(2R,4R)-4-{[(7R)-2,2-difluoro-7-methyl-6,7-dihydro-2H-furo[2,3-f][1,3]benzodioxole-7-carbonyl]amino}-7-methoxy-3,4-dihydro-2H-1-benzopyran-2-yl]benzoate] | 80 | 130
8 | C[C@]1(C(=O)N[C@@H]2C[C@H](c3cccc(C(=O)O)c3)Oc3ccccc32)COc2cc3c(cc21)OC(F)(F)O3 [Example 22, 3-[(2R,4R)-4-{[(7R)-2,2-difluoro-7-methyl-6,7-dihydro-2H-furo[2,3-f][1,3]benzodioxole-7-carbonyl]amino}-3,4-dihydro-2H-1-benzopyran-2-yl]benzoic acid] | 640 | 156
9 | C[C@]1(C(=O)N[C@@H]2C[C@H](c3ccc(C(=O)O)cc3)Oc3ccccc32)COc2cc3c(cc21)OC(F)(F)O3 [Example 23, 4-[(2R,4R)-4-{[(7R)-2,2-difluoro-7-methyl-6,7-dihydro-2H-furo[2,3-f][1,3]benzodioxole-7-carbonyl]amino}-3,4-dihydro-2H-1-benzopyran-2-yl]benzoic acid] | 180 | 127

More lines, now with the values ahead:

Row | EC50 [nM] | Maximum % activity (%) | SMILES
10 | 1180 | 70 | CC1(C)OC[C@@H](Cn2nc(-c3ccccc3)cc(NC(=O)C3(C)COc4cc5c(cc43)OC(F)(F)O5)c2=O)O1 (stereo partly drawn) [Example 24, N-(2-{[(4R)-2,2-dimethyl-1,3-dioxolan-4-yl]methyl}-3-oxo-6-phenyl-2,3-dihydropyridazin-4-yl)-2,2-difluoro-7-methyl-6,7-dihydro-2H-furo[2,3-f][1,3]benzodioxole-7-carboxamide]
11 | 980 | 85 | CC1(C)OC[C@@H](Cn2nc(-c3ccccc3)cc(NC(=O)[C@@]3(C)COc4cc5c(cc43)OC(F)(F)O5)c2=O)O1 [Example 26, (7R)—N-(2-{[(4R)-2,2-dimethyl-1,3-dioxolan-4-yl]methyl}-3-oxo-6-phenyl-2,3-dihydropyridazin-4-yl)-2,2-difluoro-7-methyl-6,7-dihydro-2H-furo[2,3-f][1,3]benzodioxole-7-carboxamide]
12 | 1420 | 112 | COC(=O)c1cccc(-n2nc(C3CC3)cc(NC(=O)[C@@]3(C)COc4cc5c(cc43)OC(F)(F)O5)c2=O)c1 [Example 28, methyl 3-[3-cyclopropyl-5-{[(7R)-2,2-difluoro-7-methyl-6,7-dihydro-2H-furo[2,3-f][1,3]benzodioxole-7-carbonyl]amino}-6-oxopyridazin-1(6H)-yl]benzoate]
13 | 1070 | 155 | C[C@]1(C(=O)Nc2cc(C3CC3)nn(-c3cccc(C(=O)O)c3)c2=O)COc2cc3c(cc21)OC(F)(F)O3 [Example 29, 3-[3-cyclopropyl-5-{[(7R)-2,2-difluoro-7-methyl-6,7-dihydro-2H-furo[2,3-f][1,3]benzodioxole-7-carbonyl]amino}-6-oxopyridazin-1(6H)-yl]benzoic acid]
14 | > 20000 | 7 | C[C@@]1(C(=O)Nc2cc(C3CC3)nn(-c3ccc(C(=O)O)cc3)c2=O)COc2cc3c(cc21)OC(F)(F)O3 [Example 31, 4-[3-cyclopropyl-5-{[(7S)-2,2-difluoro-7-methyl-6,7-dihydro-2H-furo[2,3-f][1,3]benzodioxole-7-carbonyl]amino}-6-oxopyridazin-1(6H)-yl]benzoic acid]
15 | 210 | 132 | COC(=O)c1cccc(-n2nc(C3CC3)cc(NC(=O)C3(C)COc4cc5c(cc43)OC(F)(F)O5)c2=O)c1 (stereo not drawn) [Example 40, methyl 3-{3-cyclopropyl-5-[(2,2-difluoro-7-methyl-6,7-dihydro-2H-furo[2,3-f][1,3]benzodioxole-7-carbonyl)amino]-6-oxopyridazin-1(6H)-yl}benzoate]
16 | > 20000 | 3 | CC1(C)OC[C@@H](Cn2nc(-c3ccccc3)cc(NC(=O)[C@]3(C)COc4cc5c(cc43)OC(F)(F)O5)c2=O)O1 [Example 41, (7S)—N-(2-{[(4R)-2,2-dimethyl-1,3-dioxolan-4-yl]methyl}-3-oxo-6-phenyl-2,3-dihydropyridazin-4-yl)-2,2-difluoro-7-methyl-6,7-dihydro-2H-furo[2,3-f][1,3]benzodioxole-7-carboxamide]
17 | 1060 | 61 | COc1ccc2c(c1)O[C@@H](c1ccc(C(=O)O)cc1)C[C@H]2NC(=O)[C@@]1(C)CCc2c1ccc1c2OCO1 [Example 42, 4-[(2R,4R)-7-methoxy-4-{[(6S)-6-methyl-7,8-dihydro-2H,6H-indeno[4,5-d][1,3]dioxole-6-carbonyl]amino}-3,4-dihydro-2H-1-benzopyran-2-yl]benzoic acid]
18 | 930 | 153 | Cc1ccc(NC(=O)C2(C)CCc3cc4c(cc32)OC(F)(F)O4)nc1-c1cccc(C(=O)O)c1 (stereo not drawn) [Example 51, 3-{6-[(2,2-difluoro-5-methyl-6,7-dihydro-2H,5H-indeno[5,6-d][1,3]dioxole-5-carbonyl)amino]-3-methylpyridin-2-yl}benzoic acid]
